The test system of series [1] is SOX2^+ cells in SLG explants. Nature of the series: Ex vivo lineage tracing in adult salivary gland explants (Sox2CreERT2; Rosa26mTmG). The conditions noted are these: 200 nM, 48 h. It counts as cell-based, mouse. Here is the method:
Salivary glands from Sox2^CreERT2; Rosa26^mTmG mice (recombination induced 24 h prior) were mechanically dissected into <1-mm pieces, placed in complete media in the presence or absence of 200 nM CCh (Sigma-Aldrich) or 10 μM 4-DAMP (Tocris), and cultured for 48 h before being fixed for immunofluorescence. In some cases, mice were irradiated with three doses of 5 Gy before glands were taken for culture as above.
Whole-mount salivary gland and tissue section immunofluorescence analysis has been previously described (Knox et al., 2010). In brief, tissue was fixed with either ice-cold acetone/methanol (1:1) for 1 min or 4% PFA for 20-30 min followed by permeabilizing with 0.1-0.3% Triton X. Tissue was blocked overnight at 4° C. with 10% Donkey Serum (Jackson Laboratories, ME), 1% BSA (Sigma-Aldrich), and MOM IgG-blocking reagent (Vector Laboratories, CA) in 0.01% PBS-Tween 20. […] Antibodies were detected using Cy2-, Cy3-, or Cy5-conjugated secondary Fab fragment antibodies (Jackson Laboratories) and nuclei stained using Hoechst 33342 (1:1,000, Sigma-Aldrich). Fluorescence was analyzed using a Leica Sp5 confocal microscope and NIH ImageJ software.
For immunofluorescent analyses (e.g., FIG. 2D), cells positively stained for markers were counted using ImageJ. Acinar cell size was measured using ImageJ. […]

Series [2] has as its system human salivary gland (SMG or PG) explants. Nature of the series: Human salivary gland explant culture with CCh, qPCR. It is filed as cell-based. The conditions noted are these: 200 nM, 4 h, vs untreated. The text has this:
Adult human salivary gland was obtained from discarded, non-identifiable tissue with consent from patients undergoing neck resection (age 28-78, male and female). Informed consent was given by all subjects and experiments conformed to the principles set out in the WMA Declaration of Helsinki and the Department of Health and Human Services Belmont Report. Patients had either had no irradiation therapy (non-IR) or fractionated radiation therapy (IR)<2 years prior to surgery. Tissue was immediately placed in 4% PFA, RNAlater (Qiagen) or DMEM (Thermo Fisher) for live cell explant culture. For ex vivo culture, non-IR tissue was dissected into <1-mm pieces and cultured in serum-free DMEM/F12 containing holotransferrin and ascorbic acid. For explant assays, the tissue (SMG and PG) was incubated with 50-200 nM CCh (200 nM CCh shown in results) for 4 h before being lysed for RNA. For salivary gland explant-parasympathetic submandibular ganglia […] co-culture, tissue was dissected into <1-mm pieces and cultured on a floating filter above serum-free media. E13 mouse parasympathetic submandibular ganglia were isolated as previously described (Knox et al., 2010). One parasympathetic submandibular ganglion per explant was placed next to the human salivary gland and cultured for 7 days and either fixed for immunofluorescent analysis or lysed for RNA.
RNA was isolated from whole tissue using RNAqueous Micro Kit (Ambion). Total RNA samples were DNase-treated (Ambion) prior to cDNA synthesis using SuperScript reagents (Invitrogen, CA). SYBR green qPCR was performed using 5 ng (mouse) or 4-10 ng (human) of cDNA and primers designed using Primer3 and Beacon Designer software or described on PrimerBank (pga.mgh.harvard.edu/primerbank/). Melt curves and primer efficiency were determined as previously described (Hoffman et al., 2002). Gene expression was normalized to the housekeeping genes S18 and S29 (Rps18 and Rsp29) or GAPDH for mouse and GAPDH for human and to the corresponding experimental control. Reactions were run in triplicate and experiments performed 2-3 times.

For series [3] the following is noted: long term oral use in patients; cited from earlier work.
Series [4] deals with acinar cells of the sublingual gland. Description: Intraglandular injection of cevimeline, acinar cell proliferation. It is filed as in vivo, mouse. The conditions noted are these: 10 mg/kg (20 μL) directly into sublingual gland, 18 hrs, non-irradiated mice, vs saline. Here is the method:
Given our previous findings that systemic administration of a muscarinic mimetic promotes salivary gland proliferation, we next determined if local intraglandular injection was also able to promote a mitotic response. To determine if cevimeline could act locally on the salivary gland to induce acinar cell proliferation we injected cevimeline at 10 mg/kg of body weight (20 μL) directly into the sublingual gland and measured proliferation after 18 hrs.
For Intraglandular injection of cevimeline, mice were administered with analgesics 30 min prior to surgery (carprofen and buprenorphine; Patterson Veterinary and Buprenex; 0.1 mg/kg and […] (IP), respectively) and anaesthetized via inhalation with 2% isoflurane/O2mix. The surgical area was shaved and prepared for incision with alternating iodine and alcohol washes, followed by local anesthetic (lidocaine; Hospira Inc., 8 mg/kg). […]
Tissue section immunofluorescence analysis was processed as follows. […] Antibodies were detected using Cy2-, Cy3- or Cy5-conjugated secondary Fab fragment antibodies (1:300, Jackson Laboratories) and nuclei stained using Hoescht 33342 (1:1000, AnaSpec Inc.). […] Slides were mounted using Fluoromount-G (SouthernBiotech) and fluorescence was analyzed using a Leica Sp5 confocal microscope. Image processing and quantification was performed using NIH ImageJ software.

For series [5] the following is noted: cited from earlier work.
Series [6] has as its system acinar cells of irradiated salivary glands. Nature of the series: Cell proliferation in salivary glands after gamma-radiation induced damage. It counts as in vivo, mouse. The conditions noted are these: 14 days after 10Gy, 18 hrs, vs saline.
Series [7] is described as follows: In vitro cevimeline release from alginate hydrogels (LC-MS/MS). It counts as physicochemical. Here is the method: A Shimadzu Prominence LC-20ADXR system interfaced to a 4500 QTrap mass spectrometer with an electrospray ionization (ESI) source was operated for LC-MS/MS analysis. The chromatographic separation was achieved using a Phenomenex KineteX® C18 (50×3 mm, 2.6 μm) column coupled with a Phenomenex SecurityGuard C18 guard column (3 mm×2.0 mm). The column temperature was controlled at 30° C. Mobile phase A was 0.1% Trifluoroacetic acid in water and mobile phase B was acetonitrile (ACN). The injection volume was 10 μL and the flow rate was 0.5 mL/min. The gradient condition was: (time/minute, % mobile phase B): (0, 15), (1, 15), (2.5, 22.8), (2.6, 98), (5, 98), (5.1, 15), and (8, 15). The source parameters included curtain gas of 45 psi, ion spray voltage of 4000 V, ion source temperature of 550, and medium collision gas.
Standard working solutions of cevimeline were prepared over the range from of 10.0-10000.0 ng/mL in methanol. Working solutions were spiked into 100 μL of DMEM to generate the standards or QC samples. The final concentrations of the calibration standards were 0.5, 1.0, 2.5, 5.0, 10.0, 25.0, 50.0 and 100.0, 250.0 and 500 ng/mL in DMEM. The QC samples were 0.9, 4, 30.0 and 400.0 ng/mL.
For the sample preparation step, to each 100 μL DMEM, 10 μL IS working solution (1000 ng/mL) was added. 96-Well Protein Precipitation Filter Plate Sigma-Aldrich (St. Louis, MO) and 300 μl of MeOH:ACN (15:85) were used for protein precipitation. 200 μl of NH4OH 5% was added to 200 μl of the sample after filtration and 10 μl was injected to the LCMS system. The bioanalytical method was validated in accordance with current U.S. FDA guidelines including selectivity, linearity, intra- and interday precision and accuracy, recovery and stability (“Guidance for Industry, Bioanalytical Method Validation,”2018 fda.gov/media/70858/download).
In vitro cevimeline (CV) release from OA hydrogels was tested by creating 1 mm×4 mm disks with either a 2 or 5% oxidation at a weight/volume of 2, 5, or 10%. Alginate+cevimeline (Abcam, ab141317) hydrogels were created by resuspending the drug at the desired concentration in the DMEM prior to mixing with the lyophilized OA, subsequent crosslinking proceeds as described above to encapsulate the drug with the OA hydrogel. Three 4 mm alginate+cevimeline hydrogels were placed in 0.4 μm transwell in a 12-well plate containing 3.2 ml of DMEM incubating in 37° C. with slow continuous agitation (100 RPM). Sample media (3 ml DMEM) was collected and replenished at 4 hours, 1-, 2-, 3-, 4-, 5-, and 7 days (D). Three hydrogels were pooled together with an average of 3-5 separate replicates (samples) at each time point. Sample media was stored at −20° C. until mass spectroscopy analysis was performed. […]

For the compound `C[N+](C)(C)CCOC(N)=O` [CCh, carbachol], in series [1] (healthy (no IR) SLG tissue), the “GFP^+ clones” value is on record as “increase”. Besides, the “cell proliferation (Ki67^+ cells)” value in series [1] (healthy SLG tissue) is “increase”. For the same compound, the “GFP^+ cells in IR explants” value in series [1] (irradiated SLG explants, compared to IR alone) is given as “increased”. Besides, in series [2] (n=4 individuals), the “expression of AQP3” value is listed as “significantly increased”, the “expression of AQP5” value is reported as “significantly increased”, the “expression of CHRM1” value is recorded as “significantly increased” and the “expression of CHRM3” value is “significantly increased”. Further, in series [2] (n=4 individuals), the “expression of MIST1” value is listed as “significantly increased” and the “expression of SOX2” value was “significantly increased”. In addition, in series [2], the KRT19 gene expression result was “increase”, the “expression of ductal marker EGFR” value is reported as “remained unchanged”, the “expression of ductal marker KRT7” value is listed as “remained unchanged” and the “expression of ductal marker KRT8” value was “remained unchanged”.

Regarding `CC1OC2(CS1)CN1CCC2CC1` (stereo not shown) [cevimeline], the salivary gland function result in series [3] is reported as “improves salivary gland function”. Also, the acinar cell proliferation result in series [4] was “significantly increased”. Besides, in series [5], the pKA is 9.5. Also, the “proliferation of acinar cells in irradiated mice” value in series [6] (local (intraglandular) 10 mg/kg) and in series [6] (systemic (i.p.) 10 mg/kg) was “increased” throughout. In series [7] (2% OA hydrogels at 5 wt %, different initial cevimeline loading per disk), the “release rates with different starting drug loading” value is given as “remain relatively consistent”. For the same compound, the “cevimeline released by 2 days” value in series [7] (from OA alginate hydrogels (2 or 5% OA; 2, 5 or 10 wt %)) was “over 85±5%”. Moreover, the “day by which all cevimeline had been released” value in series [7] (from OA hydrogels) is at most 4 days. For the same compound, the “duration of sustained release” value in series [7] (from alginate hydrogel) stood at 2 days.
